Data from patent US8568736B2, “Polypeptide derivatives of parathyroid hormone (PTH)” (The General Hospital Corporation, priority 1999, dated 2013).
One block for each substance: values may come before it. No end group written: not given here.

Assays:
PTH-1 receptor [1] = biological target: T1, PTH-1 receptor (Homo sapiens, UniProt Q03431); assay: cAMP stimulation in HKRK-B7 cells (LLC-PK1 stably transfected with hPTH-1 receptor); format: cell-based; parameters: expressed in transfected cells; host or cells: LLC-PK1 porcine kidney cells, clone HKRK-B7; conditions: for cAMP signaling activity (in words) / Emax: HKRK-B7 cells; for cAMP signaling activity (in words): dose-response; for Emax: Emax constrained to ±1 SD of rPTH(1-34) response at 100 nM
T1 sequence (Q03431 27-593): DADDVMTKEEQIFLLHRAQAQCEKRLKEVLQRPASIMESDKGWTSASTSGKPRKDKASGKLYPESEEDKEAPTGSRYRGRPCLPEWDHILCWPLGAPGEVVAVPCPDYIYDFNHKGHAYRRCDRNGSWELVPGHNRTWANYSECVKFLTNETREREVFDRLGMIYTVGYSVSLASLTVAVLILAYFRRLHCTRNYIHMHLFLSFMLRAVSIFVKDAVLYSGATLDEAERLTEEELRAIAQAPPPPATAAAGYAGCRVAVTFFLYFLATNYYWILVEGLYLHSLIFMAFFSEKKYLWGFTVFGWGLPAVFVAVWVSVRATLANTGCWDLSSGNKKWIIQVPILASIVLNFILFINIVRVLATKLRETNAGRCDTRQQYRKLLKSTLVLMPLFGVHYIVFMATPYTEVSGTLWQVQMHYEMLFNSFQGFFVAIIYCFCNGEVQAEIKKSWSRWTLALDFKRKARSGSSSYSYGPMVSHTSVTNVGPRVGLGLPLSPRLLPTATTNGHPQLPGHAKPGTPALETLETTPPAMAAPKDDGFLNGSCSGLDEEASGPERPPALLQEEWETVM
Source text: (§1) Stably transfected derivatives of the porcine kidney cell line LLC-PK1, HKRK-B7 (Takasu, H., et al., J. Bone Miner. Res. 14:11-20 (1999)) and hPR2-20, express the human PTH-1 and human PTH-2 receptors respectively. The HKRK-B7 LLC-PK1 cell line expresses the hPTH-1 receptor at ˜1×10^6 receptors/cell (Takasu, H., et al., J. Bone Miner. Res. 14:11-20 (1999)), and the hPR2-22 LLC-PK1 cell line expresses the hPTH-2 receptor at ˜0.8×10^6 receptors/cell (provided by H. Takasu and F. R. Bringhurst, Endocrine Unit, Massachusetts General Hospital).
(§2) Stimulation of cells with peptide analogs was performed in 24-well plates. Cells were rinsed with 0.5 mL of binding buffer and treated with 200 μL of cAMP assay buffer (Dulbecco's modified Eagle's medium containing 2 mM 3-isobutyl-1-methylxanthine, 1 mg/mL bovine serum albumin, 35 mM Hepes-NaOH, pH 7.4) and 100 μL of binding buffer containing varying amounts of peptide analog (final volume=300 μL). The medium was removed after incubation for 1 h at room temperature, and the cells were frozen (−80° C.), lysed with 0.5 mL 50 mM HCl, and refrozen (−80° C.). The cAMP content of the diluted lysate was determined by radioimmunoassay. Where possible, cAMP EC50 and Maximum response values were determined using nonlinear regression (see below).
(§3) Intracellular cAMP accumulation may be measured as described by Abou-Samra et al., J. Biol. Chem. 262:1129, 1986) or other methods known to those of skill in the art. Intracellular cAMP is extracted by thawing the cells in 1 ml of 50 mM HCl and analyzed by a specific radioimmunoassay using an anti-cAMP antibody (e.g., Sigma, St. Louis, Mo.). A cAMP analog (2′-O-monosuccinyl-adenosine 3′:5′-cyclic monophosphate tyrosyl methyl ester, obtained from Sigma) which is used as a tracer for cAMP is iodinated by the chloramine T method. Free iodine is removed by adsorbing the iodinated cAMP analog onto a C18 Sep-pak cartridge (Waters, Milford, Mass.). After washing with dH2O, the iodinated cAMP analog is eluted from the Sep-pak Cartridge with 40% acetonitrille (ACN) and 0.1% trifluoroacetic acid (TFA). The iodinated cAMP analog is lyophilized, reconstituted in 1 ml 0.1% TFA, and injected into a C18 reverse phase HPLC column (Waters). The column is equilibrated with 10% ACN in 0.1% TFA, and eluted with gradient of 10-30% ACN in 0.1% TFA. This allows separation of the mono-iodinated cAMP analog from the non-iodinated cAMP analog. The tracer is stable for up to 4 months when stored at −20° C. The standard used for the assay, adenosine 3′:5′-cyclic monophosphate, is purchased from Sigma. Samples (1-10 µl of HCl extracts) or standards (0.04-100 fmol/tube) are diluted in 50 mM Na-acetate (pH 5.5), and acetylated with 10 μl of mixture of triethylamine and acetic anhydride (2:1 vol:vol). After acetylation, cAMP antiserum (100 μl) is added from a stock solution (1:4000) made in PBS (pH 7.4), 5 mM EDTA and 1% normal rabbit serum. The tracer is diluted in PBS (pH 7.4) with 0.1% BSA, and added (20,000 cpm/tube). The assay is incubated at 4° C. overnight. The bound tracer is precipitated by adding 100 μl of goat anti-rabbit antiserum (1:20 in PBS) and 1 ml of 7% polyethyleneglycol (MW 5000-6000), centrifuging at 2000 rpm for 30 min. at 4° C. The supernatant is removed and the bound radioactivity is counted in a gamma-counter (Micromedic). To compute the cAMP data, logit calculations were performed in Excel spreadsheets. Typically, the assay sensitivity is 0.1 fmol/tube, and the standard concentration that displaces 50% of tracer is 5 fmol/tube.
(§4) All calculations were performed using Microsoft Excel. Nonlinear regression analysis of cAMP stimulation data was performed using parameters, defined as the Minimum, Maximum, Emax, midpoint (EC50), and slope of the response curve. The predicted response (yp) for a given dose (x) of peptide was calculated using the following equation: yp=Min+[(Max−Min)/(1+(EC50/x)^slope)]. […]

hPTH-2 Receptor = biological target: T2, hPTH-2 Receptor (Homo sapiens, UniProt P49190); assay: cAMP stimulation in LLC-P2R-22 cells (LLC-PK1 stably transfected with hPTH-2 receptor); format: cell-based; conditions: LLC-P2R-22 cells (hPTH-2 Receptor)
T2 construct: expressed in transfected cells; host or cells: LLC-PK1 porcine kidney cells (clone given as hPR2-20, hPR2-22, LLC-P2R-22 or P2R-22)
Source text: as §1, §2, §3, §4

PTH-1 receptor [2] = biological target: T1, PTH-1 receptor; parameters: expressed in transfected cells; host or cells: LLC-PK1 porcine kidney cells, clone HKRK-B7; conditions: HKRK-B7 cells; Luck et al. 1999; cited from earlier work
[3] = biological target: T3, cloned rat PTH-1 receptor (Rattus norvegicus, UniProt P25961); conditions: CHO cells, Azurani 1996; cited from earlier work
T3 construct: host or cells: CHO cells
T3 sequence (P25961 27-591): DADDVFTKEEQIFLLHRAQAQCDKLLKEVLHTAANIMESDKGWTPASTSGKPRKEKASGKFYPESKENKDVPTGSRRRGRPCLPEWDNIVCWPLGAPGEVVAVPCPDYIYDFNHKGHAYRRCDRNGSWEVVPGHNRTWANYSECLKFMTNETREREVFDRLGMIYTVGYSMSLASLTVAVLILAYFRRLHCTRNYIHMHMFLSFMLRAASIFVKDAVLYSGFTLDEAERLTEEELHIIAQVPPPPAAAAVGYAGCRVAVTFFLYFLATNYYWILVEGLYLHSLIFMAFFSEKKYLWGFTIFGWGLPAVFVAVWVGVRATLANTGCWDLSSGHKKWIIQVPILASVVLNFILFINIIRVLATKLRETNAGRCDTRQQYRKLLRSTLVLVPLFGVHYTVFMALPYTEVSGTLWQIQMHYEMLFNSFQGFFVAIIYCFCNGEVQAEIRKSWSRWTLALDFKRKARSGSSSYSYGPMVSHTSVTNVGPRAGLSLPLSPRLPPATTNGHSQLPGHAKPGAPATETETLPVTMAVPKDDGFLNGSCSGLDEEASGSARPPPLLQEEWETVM

PTH-1 receptor [4] = biological target: T1, PTH-1 receptor; conditions: literature; cited from earlier work
[5] = biological target: T4, rat PTH-1 receptor (endogenous, ROS 17/2.8 cells) (Rattus norvegicus, UniProt P25961); assay: cAMP response in osteoblastic ROS 17/2.8 cells; format: cell-based; conditions: ROS 17/2.8 cells
T4 construct: The rat osteoblastic cell line ROS 17/2.8; endogenous in cells; host or cells: ROS 17/2.8 rat osteoblastic cells
T4 sequence (P25961 27-591): T3 sequence (P25961 27-591)
Experimental: The rat osteoblastic cell line ROS 17/2.8 (Majeska, R. J., et al, Endocrinology 107:1494-1503 (1980)) expresses endogenous PTH-1 receptors at levels of 80,000 per cell and the human osteoblastic cell line, SAOS-2, express endogenous PTH-1 receptors at levels of ˜30,000 per cell.
as §2
All calculations were performed using Microsoft Excel. Nonlinear regression analysis of cAMP stimulation data was performed using parameters, defined as the Minimum, Maximum, Emax, midpoint (EC50), and slope of the response curve. The predicted response (yp) for a given dose (x) of peptide was calculated using the following equation: yp=Min+[(Max−Min)/(1+(EC50/x)^slope)]. The initial parameter values were estimated from the primary data, and the Excel “Solver function” was then used to vary the four parameters in order to minimize the differences between the predicted and actual responses (least-squares method) (Bowen, W., & Jerman, J., Trends in Pharmacol. Sci. 16:413-417 (1995)). The statistical significance between two data sets was determined using a one-tailed Student's t-test, assuming unequal variances for the two sets.

rat renal membranes = conditions: Rosenblatt 1981; cited from earlier work
[6] = test system: truncated PTH-1 receptor rP1R-ΔNt; conditions: truncated rat PTH receptor vs intact rPTH-1 receptor; Luck et al. 1999; cited from earlier work
[7] = subcutaneous, in combination with oral estrogen, postmenopausal osteoporosis; cited from earlier work

T2 sequence (P49190 25-550): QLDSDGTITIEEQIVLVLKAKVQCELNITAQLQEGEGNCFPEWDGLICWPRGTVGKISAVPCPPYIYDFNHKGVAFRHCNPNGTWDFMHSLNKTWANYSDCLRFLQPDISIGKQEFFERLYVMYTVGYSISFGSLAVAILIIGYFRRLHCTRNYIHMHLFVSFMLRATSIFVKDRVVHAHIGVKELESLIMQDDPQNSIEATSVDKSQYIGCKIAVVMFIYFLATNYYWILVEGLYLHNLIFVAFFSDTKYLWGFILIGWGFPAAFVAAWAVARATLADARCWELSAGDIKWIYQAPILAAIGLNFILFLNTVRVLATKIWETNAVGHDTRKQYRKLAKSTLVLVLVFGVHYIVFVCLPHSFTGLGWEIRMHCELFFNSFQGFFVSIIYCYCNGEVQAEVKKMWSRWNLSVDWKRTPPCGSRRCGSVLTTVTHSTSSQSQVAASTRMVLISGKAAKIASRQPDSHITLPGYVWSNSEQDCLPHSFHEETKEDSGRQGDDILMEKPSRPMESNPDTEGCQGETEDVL

cAMP signaling activity (in words) (PTH-1 receptor [1]): signaling activity was readily observed
Emax (PTH-1 receptor [1]): 239 ± 7 picomole/well
Emax (hPTH-2 Receptor): 501 picomole/well
Substance: AVAEIQLMHARAK-NH2 [compound 4, AlaValAlaGluIleGlnLeuMetHisAlaArgAlaLys-amide]

Substance: PTH(1-9) (AVSEIQLMH-NH2; UniProt P04089 32-40, looked up, fragment) [native rat PTH fragment analog]
cAMP response of native rat PTH fragments (in words) (PTH-1 receptor [2]): little or no cAMP response

Substance: PTHrP(1-16) (AVSEHQLLHDKGKSIQ; Parathyroid hormone-related protein; UniProt P12272 37-52, looked up, fragment) [short NH2-terminal PTHrP peptide from the literature]
AC activity [3]: inactive

Substance: PTH(15-34)
cAMP response (PTH-1 receptor [4]): inactive

cAMP signaling activity (in words) (PTH-1 receptor [1]): signaling activity was readily observed
Emax (PTH-1 receptor [1]): 238 ± 9 picomole/well
Emax (hPTH-2 Receptor): 501 picomole/well
Substance: AVAEIQLMHARA-NH2 [compound 5, AlaValAlaGluIleGlnLeuMetHisAlaArgAla-amide]

Emax [5]: 382 picomole/well
Emax (PTH-1 receptor [1]): 262 ± 9 picomole/well
fold more potent than native PTH(1-14) (PTH-1 receptor [1]; LLC-PK1 cells stably expressing hPTH-1 receptor, cAMP): 220 fold
Substance: AVAEIQLMHARAKW-NH2 [Peptide #2, AlaValAlaGluIleGlnLeuMetHisAlaArgAlaLysTrp-amide]

Emax (PTH-1 receptor [1]): 235 ± 3 picomole/well
Substance: AVAEIQLMHQRAKH-NH2 [compound 3, AlaValAlaGluIleGlnLeuMetHisGlnArgAlaLysHis-amide]

Substance: PTH(1-13) (AVSEIQLMHNLGK-NH2; UniProt P04089 32-44, looked up, fragment) [native rat PTH fragment analog]
cAMP response of native rat PTH fragments (in words) (PTH-1 receptor [2]): little or no cAMP response

Substance: bPTH(1-12) (AVSEIQFMHNLG; Parathyroid hormone; UniProt P01268 32-43, looked up, fragment) [short NH2-terminal PTH peptide from the literature]
adenyl cyclase activity (rat renal membranes): inactive

cAMP signaling activity (in words) (PTH-1 receptor [1]): elicited some activity
Substance: [A3,Q10]rPTH(1-10) (AVAEIQLMHQ-NH2)

Substance: PTH(1-11) (AVSEIQLMHNL-NH2; UniProt P04089 32-42, looked up, fragment) [native rat PTH fragment analog]
cAMP response of native rat PTH fragments (in words) (PTH-1 receptor [2]): little or no cAMP response

Substance: PTH(1-34)
fold weaker with the truncated receptor than with the intact receptor [6]: 1000 fold
bone density [7]: increases in bone density

Substance: PTH(1-12) (AVSEIQLMHNLG-NH2; UniProt P04089 32-43, looked up, fragment) [native rat PTH fragment analog]
cAMP response of native rat PTH fragments (in words) (PTH-1 receptor [2]): little or no cAMP response

Substance: PTH(1-10) (AVSEIQLMHN-NH2; UniProt P04089 32-41, looked up, fragment) [native rat PTH fragment analog]
cAMP response of native rat PTH fragments (in words) (PTH-1 receptor [2]): little or no cAMP response
